In patent publication US20170304329A1 (THE UNIVERSITY OF KANSAS, priority 2014, published 2017):
Values joined by “and” are separate entries in the source; they are usually repeats but may differ in a detail not shown here. Equal values may be shown once. Where a name gives a salt, the structure may show the parent alone. Read-outs that look alike come from different tables or passages of the source.

Tests used:
253JBV cells = assay: Cell proliferation, hexosaminidase assay; assay type: cell-based, human
Description: (§1) To determine the effect of CPX on bladder cancer cell proliferation in T24 (MIBC) and 253-JBV (NMIBC) cells, 5,000 cells per well were seeded on to 96-well plates and grown overnight. The cells were then treated with increasing doses of CPX in RPMI media containing 10% FBS. Analysis of cell proliferation after the treatment period was estimated by the hexosaminidase assay. Briefly, the medium was removed and hexosaminidase substrate solution in citrate buffer pH 5 (7.5 mM), p-nitrophenol-N-acetyl-beta-D-glucosaminidase (Sigma Aldrich) was added at 75 μL per well. The plate was incubated at 37° C. in 100% humidity for 30 minutes. The reaction was stopped with 112.5 μL of 50 mM glycine containing 5 mM of EDTA (pH 10.4). The absorbance was measured at 405 nm. Experiments were conducted at n=6, and then repeated at least three times. The data were analyzed as percent of control, where the control wells were treated with equivalent amounts of DMSO alone. For IC50 calculations, a plot between the drug concentration and hexosaminidase activity was generated and the data was fitted either linearly or exponentially. The best fit was used for further processing of data.
(§2) We determined and compared the effect of CPX with CPX-POM and CPX-glucuronide in vitro by performing proliferation assay. To determine the effect of CPX, CPX-POM and CPX-glucuronide on bladder cancer cell proliferation in T24 (MIBC) and 253-JBV (NMIBC) cells, 5,000 cells per well were seeded on to 96-well plates and grown overnight. The cells were then treated with increasing doses of CPX, CPX-POM and CPX-glucuronide in RPMI media containing 10% FBS. Analysis of cell proliferation after the treatment period was estimated by the hexosaminidase assay. Briefly, the medium was removed and hexosaminidase substrate solution in citrate buffer pH 5 (7.5 mM), p-nitrophenol-N-acetyl-beta-D-glucosaminidase (Sigma Aldrich) was added at 75 μL per well. The plate was incubated at 37° C. in 100% humidity for 30 minutes. The reaction was stopped with 112.5 μL of 50 mM glycine containing 5 mM of EDTA (pH 10.4). The absorbance was measured at 405 nm.
(§3) Experiments were conducted at n=6, and then repeated at least three times. The data were analyzed as percent of control, where the control wells were treated with equivalent amounts of DMSO alone. For IC50 so calculations, a plot between the drug concentration and hexosaminidase activity was generated and the data was fitted either linearly or exponentially.

T24 cells = assay: Cell proliferation, hexosaminidase assay; assay type: cell-based, human
Description: as §1, §2, §3

β-glucuronidase = test system: β-glucuronidase
Description: Based on human excretion data [Kellner et al, Arzneimittel-Forschung. 31 (8A):1337-1353], as well as evidence that bladder cancer patients have increased glucuronidase activity in urine [Paigen, K., Peterson, J., Paigen B. (1984) Role of urinary β-glucuronidase activity in human bladder cancer. Cancer Res 44:3620-3623], we conducted in vitro metabolism studies to characterize the stability of ciclopirox glucuronide in urine (at a concentration of 150 μM) obtained from bladder cancer patients compared to control urine collected from healthy volunteers.

[1] = test system: BBN induced bladder tumors; assay: BBN induced bladder tumor model; assay type: in vivo, mouse
From the text: There were no significant differences in bladder weights between the two CPX-POM treatment groups. […] There is a strong correlation between CPX-POM treatment and tumor stage. […] Hematoxylin and Eosin stained bladder tissue sections of BBN alone group animals show a very high frequency of T3 stage tumors.

[2] = dogs
[3] = Study 11428: plasma CPX pharmacokinetics after IV CPX-POM, SQ CPX-POM and oral CPX-O; assay type: in vivo, male Sprague-Dawley rats; conditions: rats; for AUC: plasma, po
From the text: (§6) Intravenous CPX-POM was used as the reference in characterizing the bioavailability of ciclopirox following SQ ciclopirox-POM prodrug in this specie.

[4] = Study 10953: urine CPX pharmacokinetics after IV CPX-POM and CPX-O; assay type: in vivo, male beagle dogs; conditions: dogs; 3 mg/kg IV
From the text: (§4) Study 10953. Bioavailability of Ciclopirox Following Intravenous Administration of Ciclopirox-POM Prodrug in the Dog. […] Given the low oral bioavailability of CPX observed in the mouse following administration of CPX-O and CPX-POM, this route of administration was not investigated in this study.

[5] = Study 208-02: plasma CPX pharmacokinetics after IV and oral CPX-O and CPX-POM; assay type: in vivo, male C57/Bl6 mice; conditions: mice
From the text: Study 208-02. Bioavailability of Ciclopirox Following Oral and Intravenous Administration of Ciclopirox-POM Prodrug in the Mouse. […] The objectives of this study were to characterize the rate and extent of CPX-POM metabolism and assess the feasibility of orally administered ciclopirox-POM prodrug in support of future cancer proof of principle studies.

[6] = Series of pharmacokinetic studies (summary); conditions: following IV administration in mice, rats, and dogs
[7] = Study 11429: plasma CPX pharmacokinetics after IV CPX-POM, SQ CPX-POM and oral CPX-O; assay type: in vivo, male beagle dogs; conditions: dogs; for AUC: plasma, po, 9 mg/kg
From the text: as §6

[8] = Study 10954: plasma CPX pharmacokinetics after IV CPX-POM and CPX-O; assay type: in vivo, male Sprague-Dawley rats; conditions: rats
From the text: (§5) Study 10954. Bioavailability of Ciclopirox Following Intravenous Administration of Ciclopirox-POM Prodrug in the Rat. […] Given the low oral bioavailability of CPX observed in the mouse following administration of CPX-O and CPX-POM, this route of administration was not investigated in this study.

[9] = mice
Description: The plasma and urine pharmacokinetics of ciclopirox (CPX) were characterized in the mouse following 10 mg/kg IV and 50 mg/kg IP administration of ciclopirox-POM prodrug (CPX-POM). […] In addition, we characterized the urinary excretion of CPX and ciclopirox glucuronide (CPX-G) to describe urinary tract exposure to CPX following IP administration of CPX-POM. Two treatment groups of 30 C57BL/6 mice each were treated with CPX-POM. Prior to and over six hours post-dose, three animals were sacrificed at each selected plasma sampling time point. Blood (plasma) was collected by cardiac puncture for bioanalysis. Plasma was pooled at each time point. In addition, two groups of six mice each were administered 10 mg/kg IV and 50 mg/kg IP CPX-POM to characterize urine pharmacokinetics. Mice were placed in metabolism cages with urine collected over 24 hours post-dose (0-8 hour and 8-24 hour urine collection intervals). As with plasma, urine samples collected from six animals were pooled for bioanalysis.

Aqueous solubility = assay type: physicochemical
[10] = Study 10953: plasma CPX pharmacokinetics after IV CPX-POM and CPX-O; assay type: in vivo, male beagle dogs; conditions: dogs
Description: as §4
FIG. 14 illustrates the mean plasma CPX concentration-time profiles following administration of 3 mg/kg IV CPX-POM and CPX-O to four male beagle dogs.

[11] = rats
[12] = test system: proliferating cell nuclear antigen (PCNA) in T24 cells; assay: Western blot of PCNA; assay type: cell-based, human
From the text: CPX-POM inhibits proliferating cell nuclear antigen (PCNA) both in vitro and in vivo. […] Also, studies show a positive correlation between notch intracellular pathway and PCNA.

[13] = Study 10954: urine CPX and CPX-G pharmacokinetics after IV CPX-POM and CPX-O; assay type: in vivo, male Sprague-Dawley rats; conditions: rats; 10 mg/kg IV
From the text: as §5

[14] = Study 11206: urine CPX and CPX-G pharmacokinetics after single and repeated IP CPX-POM; assay type: in vivo, male C57/Bl6 mice; conditions: mice; IP 50, 100, and 200 mg/kg
Description: Urine ciclopirox (CPX) pharmacokinetics were characterized in mice following single (Day 1) and repeat (Day 10) dose (once daily for ten consecutive days) administration of 50, 100, and 200 mg/kg ciclopirox-POM prodrug (CPX-POM) to three separate groups of six mice each, are summarized in Table 3B below. […] Following single and repeat dose IP administration of 50, 100, and 200 mg/kg CPX-POM, less than 1% of the dose was excreted as CPX over 24 hours. Despite the low percent dose recovery as ciclopirox, however, urine CPX concentrations exceeded the in vitro IC50 value of 2 μM by several-fold across the entire dose range.

[15] = humans; oral; cited from earlier work
[16] = cited from earlier work
[17] = 150 μM CPX-G, six-hour incubation, pooled urine from six NMIBC patients
[18] = male, Sprague-Dawley, rat, plasma CPX, single 30 mg/kg oral
[19] = male, C57/Bl6, mouse, plasma CPX, single 10 mg/kg IV
[20] = male, beagle, dog, plasma CPX, single 9 mg/kg oral

For `Cc1cc(C2CCCCC2)n(O[C@H]2OC(C(=O)O)[C@H](O)C(O)C2O)c(=O)c1` (stereo partly shown) [CPX-G, ciclopirox glucuronide], the “effect on cell proliferation” value (253JBV cells; up to 72 h) was “did not show any significant effect”, the “effect on cell proliferation” value (T24 cells; up to 72 h) was “did not show any significant effect” and the “ciclopirox formed by hydrolysis” value (β-glucuronidase; [17]) was 7.9 µM. For the same compound, the formation rate (β-glucuronidase; [17]) was 5%, the “extent of ciclopirox formation, patient urine vs healthy volunteer urine” value (β-glucuronidase; bladder cancer patient urine compared to healthy volunteers) was “approximately 11.6 fold” and the “rate of β-glucuronidase-mediated hydrolysis, patient urine vs control urine” value (β-glucuronidase; pooled bladder cancer patient urine vs control urine) was 5.6-11.5 fold.

With `Cc1cc(C2CCCCC2)n(OCOP(=O)(O)O)c(=O)c1` [CPX-POM, phosphate disodium salt] the tumor stage ([1]; H&E stained bladder tissue sections, vs BBN alone) was “significant reduction in the stage T3 frequency”, the “Notch downstream target proteins” value ([1]; bladder tissue) was “significantly reduced the Notch downstream target proteins such as Cyclin D1 and c-Myc” and the “Notch1 signaling and γ-secretase complex proteins in vivo” value ([1]; bladder tissue, both treatment groups) was “significantly reduced Notch1 activation”. For the same compound, the “PCNA level in vivo” value ([1]; bladder tumor tissues) was “reduced the level of PCNA in vivo”, the “bladder weights (measure of tumor volume)” value ([1]; four weeks once daily IP 100 mg/kg and 200 mg/kg, vs controls) was “significantly lower (p=0.013)” and the tolerability ([2]; 3 mg/kg IV and 9 mg/kg SQ) was “well tolerated”. The IC50 (253JBV cells; Homo sapiens, 48 h) was 48 µM, the IC50 (T24 cells; Homo sapiens, T-24, 48 h, 48 h) was ≥ 45 µM and the “CPX-POM in blood or urine” value ([3]; 20 mg/kg IV and 30 mg/kg SQ) was “not detected in any blood or urine sample”. For the same compound, the CPX-POM in urine [4] was “not detected in any urine sample”, the prodrug in plasma ([5]; following oral and IV administration) was “not detected in plasma” and the “prodrug in plasma and urine” value [6] was “not detected in plasma nor urine”. The “CPX-POM in blood or urine” value ([7]; 3 mg/kg IV and 9 mg/kg SQ) was “not detected in any blood or urine sample”, the CPX-POM in plasma ([8]; 10 mg/kg IV bolus) was “failed to detect CPX-POM in the majority of samples collected” and the “Cmax relative to in vitro IC50” value ([8]; 10 mg/kg IV, IC50 2 μM (414 ng/mL)) was “approximately twenty-fold greater than the IC50”. For the same compound, the tolerability ([9]; 10 mg/kg IV and 50 mg/kg IP single doses) was “well tolerated”, the “CPX Cmax relative to in vitro IC50” value ([9]; 50 mg/kg IP, IC50 2 μM (414 ng/mL)) was “five-fold greater than the IC50” and the “CPX-POM in plasma (BQL)” value ([9]; following either treatment (10 mg/kg IV, 50 mg/kg IP)) was < 25 ng/mL. The aqueous solubility (Aqueous solubility) was “improve the aqueous solubility of ciclopirox”, the CPX-POM in plasma ([10]; 3 mg/kg IV bolus) was “not detected in the majority of plasma samples assayed” and the “mean Cmax relative to in vitro IC50” value ([10]; 3 mg/kg IV, IC50 2 μM (414 ng/mL)) was “approximately seven-fold greater than the IC50”. The tolerability ([11]; 20 mg/kg IV and 30 mg/kg SQ) was “well tolerated”, the PCNA level [12] was “time dependent decrease in the level of PCNA” and the CPX-POM in urine [13] was “not detected in any urine samples collected”. For the same compound, the CPX-POM in urine [14] was “not detected in any urine samples”.

With `Cc1cc(C2CCCCC2)n(O)c(=O)c1` [CPX-O, ciclopirox olamine] the FeCPX ([2]; urine, single 9 mg/kg oral) was 0.32 ± 0.21%, the “Xe/dtCPX 8-24 hr” value ([2]; urine, single 9 mg/kg oral) was 2.90 ± 1.70 µg/h and the “XeCPX 0-24 hr” value ([2]; urine, single 9 mg/kg oral) was 299 ± 208 µg. For the same compound, the “UCPX 0-24 hr” value ([2]; urine, single 9 mg/kg oral, 9 mg/kg) was 1,602 ± 750^ ng/mL and 7.74 ± 3.62 μM, the AUC ([3]; male, Sprague-Dawley, rat, 30 mg/kg, plasma CPX, single 30 mg/kg oral, read-out: AUC0∫^n) was 211 ± 84.5 ng·h/mL and the AUC ([3]; male, Sprague-Dawley, rat, 30 mg/kg, plasma CPX, single 30 mg/kg oral, read-out: AUC0∫^∞) was 378 ± 140 ng·h/mL. It also gave a Cmax [3, 18] of 373 ± 158 ng/mL, a Tmax [3, 18] of 15 ± 7.74 min and a half-life [3, 18] of 48.1 ± 33.5 min. The Kel ([3]; plasma CPX, single 30 mg/kg oral) was 1.234 ± 0.742 h⁻¹, the F ([3]; plasma CPX, single 30 mg/kg oral, reference IV CPX-POM, 30 mg/kg) was 4.6% and 4.56% and the C0 [5, 19] was 11300 ng/mL. The MRT [5, 19] was 15.5 min, the clearance [5, 19] was 108 mL/min/kg and the Vd ([5]; male, C57/Bl6, mouse, plasma CPX, single 10 mg/kg IV, read-out: Vss) was 1.68 L/kg. For the same compound, the “AUMC0∫^n” value ([5]; plasma CPX, single 10 mg/kg IV) was 358 ng*hr^2/mL, the “AUMC0∫^∞” value ([5]; plasma CPX, single 10 mg/kg IV) was 401 ng*hr^2/mL and the Vdz ([5]; plasma CPX, single 10 mg/kg IV) was 5.7 L/kg. For the same compound, the AUC ([7]; male, beagle, dog, plasma CPX, single 9 mg/kg oral, read-out: AUC0∫^n) was 1900 ng·h/mL, the AUC ([7]; male, beagle, dog, plasma CPX, single 9 mg/kg oral, read-out: AUC0∫^∞) was 2700 ng·h/mL and the Cmax [7, 20] was 1020 ng/mL. It also gave a Tmax [7, 20] of 15 ± 7.74 min, a half-life [7, 20] of 331 ± 23.4 min and a Kel ([7]; plasma CPX, single 9 mg/kg oral) of 0.126 ± 0.009 h⁻¹. The “dose excreted in urine within 6 hours” value [15] was 87%, the “dose excreted in urine within 12 hours” value [15] was “approximately 95%” and the “dose in urine identified as ciclopirox” value [15] was 4%. The “dose in urine identified as ciclopirox and ciclopirox glucuronide” value [15] was 83%, the “dose in urine identified as ciclopirox glucuronide” value [15] was 79% and the tolerability ([16]; 80 mg/m^2 oral, once daily) was “well tolerated”. For the same compound, the toxicity ([16]; oral, four times daily) was “dose-limiting gastrointestinal toxicity”, the FeCPX ([11]; urine, single 30 mg/kg oral) was 0.25 ± 0.18% and the “Xe/dtCPX 0-8 hr” value ([11]; urine, single 30 mg/kg oral) was 0.63 ± 0.16 µg/h. For the same compound, the “Xe/dtCPX 8-24 hr” value ([11]; urine, single 30 mg/kg oral) was 1.08 ± 1.11 µg/h, the “XeCPX 0-24 hr” value ([11]; urine, single 30 mg/kg oral) was 22.30 ± 16.65 µg and the “UCPX 0-24 hr” value ([11]; urine, single 30 mg/kg oral, 30 mg/kg) was 1,711 ± 1,427 ng/mL and 8.28 ± 6.89 μM.
